Experimental data reported in ChEMBL document CHEMBL1125463, “Inhibition of N8-acetylspermidine deacetylase by active-site-directed metal coordinating inhibitors” (J Med Chem, 1992).

Legend:
[1] = In vitro inhibition of N8-Acetylspermidine deacetylase from rat liver cytosol(apparent Ki); conditions: for Ki: read-out: Ki app
[2] = (§1) In vitro inhibition of N8-Acetylspermidine deacetylase from rat liver cytosol; conditions: read-out: Ki app
[3] = species on record: Rattus norvegicus; experiment: as §1
[4] = In vitro inhibition of N8-Acetylspermidine deacetylase from rat liver cytosol(apparent Ki); Ni means no inhibition

| Ki [1] | Molecule | further results |
| --- | --- | --- |
| 0.001 µM | NCCCNCCCCCC(=O)NO | – |
| – | NCCCNCCCCCC(=O)O | Ki [2]: 11 µM |
| 800 µM | CC(=O)NCCCCN | – |
| – | c1cnc2ccc3ncccc3c2c1 | Ki app [1]: No inhibition |
| – | CC(=O)NCCCCNCCCN | Km [3]: 11 µM |
| 4100 µM | NCCCCC(=O)O [5-AMINOVALERIC ACID] | – |
| 50 µM | NCCCCCC(=O)O [AMINOCAPROIC ACID] | – |
| – | c1ccc(-c2ccccn2)nc1 [DIPYRIDYL] | Ki [2]: 1900 µM |
| – | O=C(O)CN(CCN(CC(=O)O)CC(=O)O)CC(=O)O [EDETIC ACID] | Ki [2]: 3500 µM |
| – | NC(=O)CI [IODOACETAMIDE] | Ki app [4]: Not Active |
| 860 µM | CCN1C(=O)C=CC1=O [N-ETHYLMALEIMIDE] | – |
| 1300 µM | c1cnc2c(c1)ccc1cccnc12 [PHENANTHROLINE] | – |
| 38500 µM | CCCC(=O)[O-].[Na+] [SODIUM BUTYRATE] | – |

| Molecule | Ki [1] | further results |
| --- | --- | --- |
| Para-Hydroxymercuribenzoic acid | 150 µM | – |
